Where a SMILES comes first, the peptide text is derived from it. The star is where a group is joined. PNA(A) = NCCN(CC(=O)*)C(=O)Cn1cnc2c(N)ncnc21

Consider four molecules from patent US20110039770A1, “INHIBITORS OF PROTEIN KINASE C ISOFORMS AND USES THEREOF” (PHARMAGAP INC., priority 2005, published 2011).

Data set [1] deals with T1, PKC-β (Homo sapiens, UniProt P05771).
T1 construct: PRE 2 and PRE 3 in IMR-32 Neuroblastoma Cells: Protocol A; endogenous in cells; host or cells: IMR-32 human neuroblastoma cells
Put plainly: Competition of PRE with PKC-β antibody binding, Protocol A, IMR-32 lysate. As for the experimental part: (§1) Cell lysates from either IMR-32 (human neuroblastoma) cells or C6Cx43 cells (rat glioma transfected cells overexpressing connexin 43) were obtained using standard protocols and the proteins of the lysate were separated by SDS PAGE electrophoresis and electrotransferred onto a nitrocellulose membrane. The membrane was incubated for 30 minutes in blocking buffer (TBST) containing the test peptide at either 5× or 20× the concentrations of the primary antibody. A primary polyclonal antibody specific for PKC-α (Santa Cruz Biotechnology, Inc., CA) was then added (15 μg/ml) and the membrane incubated for a further 45 minutes. Finally, the primary antibody was detected with a secondary antibody conjugated to alkaline phosphatase using standard procedures. The intensity of the band corresponding to PKC-α was assessed by scanning and densitometry using the Gel-Pro software (Media Cybernetics) to obtain relative band intensities (average of 3 replicas). Control assays were conducted as described above except that blocking buffer without peptide was used.
Peptides PRE 1, PRE 2 and PRE 3 (see Table 4) were tested for their ability to interfere with the binding of a PKC-β-specific polyclonal antibody (Santa Cruz Biotechnology, Inc.) to PKC-β using the general protocol described in Example 1. […] It is worth noting in this regard that PKC-α and PKC-β belong to the same sub-group of PKCs (cPKCs).

Data set [2] concerns the target T2, PKC-α (Homo sapiens, UniProt P17252). Put plainly: Subcellular localisation of PKC-α in IMR-32 cells. To be noted: 10 mg/ml, pinocytic endocytosis. Set-up: endogenous PKC-α in (A) untreated human neuroblastoma (IMR-32) cells; endogenous in cells; host or cells: IMR-32 human neuroblastoma cells. The class given is cell-based. As for the experimental part: Peptides PRE 3 or PRE 4 (10 mg/ml) were introduced into human neuroblastoma cells (IMR-32) by pinocytic endocytosis. The cells were fixed and stained with rabbit PKC-α primary antibody and anti-rabbit Alexa-488 or Alexa-800 secondary antibody.

The target of data set [3] is T2, PKC-α. Put plainly: Competition of PRE with PKC-α antibody binding on Western blot, Protocol A, IMR-32 lysate. Also noted: endogenous PKC-α in (A) untreated human neuroblastoma (IMR-32) cells; endogenous in cells; host or cells: IMR-32 human neuroblastoma cells. To be noted: IMR-32 cells. As for the experimental part: The ability of the PRE 1, 2 and 3 (see Table 3 above) to interfere with the binding of a PKC-α-specific polyclonal antibody to PKC-α was determined using the following protocol.
as §1
The results are expressed as relative band intensity and as a percentage of the intensity of the corresponding band in the control assay (“Relative intensity (%)”). “% inhibition” relates to the percentage of the PKC-α band that is inaccessible to the antibody.
(In western blotting, separated proteins are transferred to a membrane and probed.)

Data set [4] deals with PKC-ε. Kind of data set: Competition of PRE with PKC-ε antibody binding, Protocol B, IMR-32. Also noted: species or system human. How it is done: Peptides PRE 2, PRE 3 and PRE 4 (see Table 4) were tested for their ability to interfere with the binding of isoform-specific polyclonal antibodies (Santa Cruz Biotechnology, Inc.) to […] using the general protocol described in Example 3. Two bands, representing alternate splicing variants of PKC-ε, were identified on the Western blot using this anti-PKC-ε antibody.

Data set [5] has as its target T2, PKC-α. Kind of data set: Competition of PRE with PKC-α antibody binding, Protocol B (peptide added to cell extract before electrophoresis), IMR-32. Set-up: endogenous PKC-α in (A) untreated human neuroblastoma (IMR-32) cells; endogenous in cells; host or cells: IMR-32 human neuroblastoma cells. As for the experimental part:
Peptides PRE 3 and PRE 4 (see Table 4) were tested for their ability to interfere with the binding of isoform-specific polyclonal antibodies (Santa Cruz Biotechnology, Inc.) to PKC-α, PKC-βI or PKC-βII using the general protocol described in Example 3.

Data set [6] relates to CCD-16Lu normal immortalized human lung fibroblasts. Put plainly: Proliferation of normal lung cells (protocol of Example 14). The format is cell-based.
A short description of data set [7]: Repeat-dose toxicity study in mice. To be noted: 72-hour dosing schedule up to 75 days, subcutaneous. The class given is in vivo, mouse. The source says: A dosage of 25 micrograms per mouse was provided to a cohort of mice by subcutaneous injection. No physiological, behavioral or external signs of toxicity were observed.
[8] abbreviates: 100 μg, Example 5 (control 302.5).
[9] abbreviates: 200 μg, Example 5 (control 302.5).
Setting [10] is: 300 μg, Example 5 (control 302.5).

T1 sequence (P05771 whole entry): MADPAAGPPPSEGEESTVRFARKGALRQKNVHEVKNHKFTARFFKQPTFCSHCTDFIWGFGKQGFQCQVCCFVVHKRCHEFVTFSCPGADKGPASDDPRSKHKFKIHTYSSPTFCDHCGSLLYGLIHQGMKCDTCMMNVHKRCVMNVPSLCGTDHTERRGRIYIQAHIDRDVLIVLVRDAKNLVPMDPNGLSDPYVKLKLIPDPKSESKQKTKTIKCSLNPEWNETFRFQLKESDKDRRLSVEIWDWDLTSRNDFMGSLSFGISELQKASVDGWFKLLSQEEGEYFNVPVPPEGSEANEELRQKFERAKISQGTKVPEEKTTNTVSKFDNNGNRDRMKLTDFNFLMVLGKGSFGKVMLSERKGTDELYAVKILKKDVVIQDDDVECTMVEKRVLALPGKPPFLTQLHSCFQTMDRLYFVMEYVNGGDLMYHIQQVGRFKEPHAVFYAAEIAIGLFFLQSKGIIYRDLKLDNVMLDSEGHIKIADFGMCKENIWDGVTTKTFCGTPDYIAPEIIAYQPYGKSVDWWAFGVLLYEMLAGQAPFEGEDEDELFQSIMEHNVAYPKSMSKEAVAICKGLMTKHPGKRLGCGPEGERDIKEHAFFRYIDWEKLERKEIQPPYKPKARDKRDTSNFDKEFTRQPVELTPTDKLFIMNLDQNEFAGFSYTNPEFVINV

As for `CC[C@H](C)[C@H](NC(=O)[C@H](CO)NC(=O)[C@@H](NC(=O)CNC(=O)[C@@H](NC(=O)[C@H](CC(C)C)NC(=O)[C@H](CC(N)=O)NC(=O)[C@H](CCC(N)=O)NC(=O)[C@H](C)NC(=O)[C@H](CC(=O)O)NC(=O)CNC(=O)CNC(=O)[C@H](CCCCN)NC(=O)[C@@H](NC(=O)[C@H](CCC(=O)O)NC(=O)[C@H](CCC(N)=O)NC(=O)[C@@H](NC(=O)CNC(=O)[C@H](CCCCN)NC(=O)[C@H](C)NC(C)=O)[C@@H](C)CC)C(C)C)[C@@H](C)CC)[C@@H](C)CC)C(N)=O` [PRE 3] (Ac-AKGIQEVKGGDAQNLIGISI-NH2), the “Band Intensity” value worked out at 1.900 in data set [1] (75 μg); 1.900 in data set [1] (300 μg); 1.847 in data set [1] (600 μg); 0.889 in data set [3] (75 μg); 0.922 in data set [3] (300 μg); 0.0 in data set [5] (100 μg, Example 3 (control 0.759)). Also, the “Band Intensity” value in data set [5] (setting [8]) is listed as 0.0; in data set [5] (200 μg, Example 3 (control 0.759)), 0.0; in data set [5] (setting [9]), 0.0; in data set [5] (300 μg, Example 3 (control 0.759)) it was 0.0; in data set [5] (setting [10]), 0.0. For the same molecule, the “Inhibition (%)” value in data set [1] (75 μg) turned out to be 0.0%; in data set [1] (300 μg), 0.0%; in data set [1] (600 μg) it was 0.0%; in data set [4] (20 μg, PKC-ε Band 1), 99.0%; in data set [4] (20 μg, PKC-ε Band 2), 100.0%; in data set [4] (50 μg, PKC-ε Band 1), 100.0%. In addition, the “Inhibition (%)” value in data set [4] (50 μg, PKC-ε Band 2) worked out at 100.0%; in data set [4] (100 μg, PKC-ε Band 1), 100.0%; in data set [4] (100 μg, PKC-ε Band 2) it was 100.0%. The remaining activity at 0.075 mg in data set [1] (75 μg, read-out: Relative Intensity (%)) was found to be 102%. The remaining activity at 0.3 mg in data set [1] (300 μg, read-out: Relative Intensity (%)) amounted to 102%. Besides, the remaining activity at 0.6 mg in data set [1] (600 μg, read-out: Relative Intensity (%)) turned out to be 99.6%. Besides, in data set [2], the “effect on subcellular localisation of PKC-α” value is given as “does not alter the subcellular localisation of PKC-α”. Further, the “Relative Intensity (%)” value in data set [4] (20 μg, PKC-ε Band 1) turned out to be 0.12%; in data set [4] (20 μg, PKC-ε Band 2), 0.0%; in data set [4] (50 μg, PKC-ε Band 1), 0.0%; in data set [4] (50 μg, PKC-ε Band 2) it was 0.0%; in data set [4] (100 μg, PKC-ε Band 1) it was 0.0%; in data set [4] (100 μg, PKC-ε Band 2) it was 0.0%.

As for `CC[C@H](C)[C@H](NC(=O)[C@H](CO)NC(=O)[C@@H](NC(=O)CNC(=O)[C@@H](NC(=O)[C@H](CC(C)C)NC(=O)[C@H](CC(N)=O)NC(=O)[C@H](CCC(N)=O)NC(=O)[C@H](C)NC(=O)[C@H](CC(=O)O)NC(=O)[C@H](CCCCN)NC(C)=O)[C@@H](C)CC)[C@@H](C)CC)C(N)=O` [PRE 4, Ac-KDAQNLIGISI-NH2] (Ac-KDAQNLIGISI-NH2), the “effect on subcellular localisation of PKC-α” value in data set [2] was “prevented translocation of PKC-α to the membrane”. For the same molecule, the “Inhibition (%)” value in data set [4] (20 μg, PKC-ε Band 1) was 42.9%; in data set [4] (20 μg, PKC-ε Band 2), 46.6%; in data set [4] (50 μg, PKC-ε Band 1), 100.0%; in data set [4] (50 μg, PKC-ε Band 2), 100.0%; in data set [4] (100 μg, PKC-ε Band 1) it was 100.0%; in data set [4] (100 μg, PKC-ε Band 2) it was 100.0%. Further, the “Relative Intensity (%)” value in data set [4] (20 μg, PKC-ε Band 1) is on record as 57.1%; in data set [4] (20 μg, PKC-ε Band 2), 53.33%; in data set [4] (50 μg, PKC-ε Band 1) it was 0.0%; in data set [4] (50 μg, PKC-ε Band 2) it was 0.0%; in data set [4] (100 μg, PKC-ε Band 1) it was 0.0%; in data set [4] (100 μg, PKC-ε Band 2), 0.0%. The results for the “Band Intensity” value in data set [5] (setting [8]), in data set [5] (setting [9]) and in data set [5] (setting [10]) were 32.2, 1.5 and 0.0, respectively.

In the case of `CC[C@H](C)[C@H](NC(=O)[C@H](CO)NC(=O)[C@@H](NC(=O)CNC(=O)[C@@H](NC(=O)[C@H](CC(C)C)NC(=O)[C@H](CC(N)=O)NC(=O)[C@H](CCC(N)=O)NC(=O)[C@H](C)NC(=O)[C@H](CC(=O)O)NC(=O)[C@H](CCCCN)NC(=O)CNC(=O)CNC(=O)CNC(=O)CNC(=O)CNC(=O)CNC(=O)CNC(=O)[C@H](CC(C)C)NC(=O)[C@H](CCCNC(=N)N)NC(=O)[C@H](Cc1ccccc1)NC(=O)[C@H](CCCCNC(=O)CN(CCN)C(=O)Cn1cnc2c(N)ncnc21)NC(=O)[C@H](CCCNC(=N)N)NC(=O)[C@H](CCCNC(=N)N)NC(=O)[C@H](Cc1ccccc1)NC(C)=O)[C@@H](C)CC)[C@@H](C)CC)C(N)=O` [TIM 10] (Ac-FRRK(PNA(A))FRLGGGGGGGKDAQNLIGISI-NH2), the “effect on normal lung cells relative to H661” value in data set [6] is listed as “less affected”. Moreover, the “toxicity on repeated dosing” value in data set [7] is “no evidence of toxicity”; in data set [7] (listed as PhGalpha1), “No evidence of toxicity”.

On to RRKKGGKDFVVKR [PRE 1], for which the “Band Intensity” value is 0.825 in data set [1] (75 μg), 0.528 in data set [1] (300 μg), 1.040 in data set [3] (75 μg) and 0.771 in data set [3] (300 μg). Besides, the “Inhibition (%)” value in data set [1] (75 μg) is on record as 28.9%; in data set [1] (300 μg), 54.5%; in data set [3] (75 μg), 50.2%; in data set [3] (300 μg) it was 63.1%. The “Relative Intensity (%)” value in data set [1] (75 μg) worked out at 71.1%; in data set [1] (300 μg), 45.5%; in data set [3] (75 μg) it was 49.8%; in data set [3] (300 μg) it was 36.9%.
